In assay [1] the target is T1, Mcl-1 (myeloid cell leukemia-1) (Homo sapiens, UniProt Q07820). The assay can be described thus: 1H-15N HSQC NMR titration. The assay is classed as binding.
The target of assay [2] is T1, Mcl-1 (myeloid cell leukemia-1). In words: 1H-15N HSQC NMR titration. In kind it is binding. The source holds these as a separate data set.

The structures appear in SMILES notation. pKd: −log10 of the molar value. Where two headings read alike, the source gives them in different places.

From PMC8688747 (Drug Design, Development and Therapy, 2021) come the findings set out here.

T1 sequence (Q07820 172-327): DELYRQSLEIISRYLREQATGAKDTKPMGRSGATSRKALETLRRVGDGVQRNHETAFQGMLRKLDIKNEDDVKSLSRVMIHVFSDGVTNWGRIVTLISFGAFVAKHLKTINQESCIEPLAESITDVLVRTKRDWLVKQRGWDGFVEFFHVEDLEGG

A word on the pKd: it is −log10 of the Kd, conventionally taken in molar units. Read a low pKd as a large Kd. In turn, `O=C(O)c1ccc(-n2nc(-c3ccccc3O)nc2-c2ccccc2O)cc1` [Deferasirox] gave a pKd in assay [1] of approximately 3.52.
On to `Cc1cccc(Nc2ccncc2S(=O)(=O)NC(=O)NC(C)C)c1` [Torsemide], for which the pKd in assay [2] was approximately 3.00.
